Data taken from article PMC3274548, “Toward New Therapeutics for Skin and Soft Tissue Infections: Propargyl-Linked Antifolates Are Potent Inhibitors of MRSA and Streptococcus pyogenes” (PLoS ONE, 2012).
Values after ≈ are worked out from the molar mass of the structure shown. Like-named read-outs stand apart in the source and are kept apart here.

Columns and labels:
[1] = tested on: Streptococcus pyogenes; experiment: MIC, broth microdilution with Alamar Blue; assay type: cell-based; settings: for MIC: Streptococcus pyogenes; for Selectivity S. pyogenes: IC50 (MCF10)/MIC (pathogen), both values in µM
Procedure: (§1) Stock solutions of standard antibiotics and test compounds were made at 50 mM in DMSO. […] For susceptibility testing, 10 µL of glycerol stock was suspended in a 10 mL shake flask culture of chemically defined Isosensitest broth (Oxoid) supplemented with 2% w/v glucose. A sample of the shake flask culture was diluted to 1×10^6 cells/mL in media and added to 96-well test plates (100 µL per well) containing test compounds dispensed in DMSO (2 µL) using serial two-fold dilutions. After an incubation period (30°C) determined from the strain specific doubling time, a 0.03% w/v aqueous solution of resazurin (10 µL) was added and the plates were allowed to incubate; each well was then scored for dye reduction.

[2] = tested on: MRSA strain containing the F98Y mutation; settings: cited from earlier work
[3] = tested on: MRSA (S.aureus 13709); experiment: MIC, broth microdilution with Alamar Blue; assay type: cell-based, Staphylococcus aureus; settings: for MIC: Staphylococcus aureus, MRSA; for Selectivity MRSA: IC50 (MCF10)/MIC (pathogen), both values in µM
Procedure: as §1

[4] = tested on: MCF-10 cells; experiment: Mammalian cell toxicity (Alamar Blue); assay type: cell-based; settings: Homo sapiens, MCF10; cytotoxicity, 4 h incubation; read-out: IC50 MCF-10
Procedure: Adherent cell lines were maintained in Eagle's Minimal Essential Media (Sigma-Aldrich, St. Louis, MO, USA) with 2 mM glutamine and Earle's Balanced Salt Solution (HyClone, Logan, UT, USA) adjusted to contain 1.5 g/L sodium bicarbonate, 0.1 mM non-essential amino acids, 1 mM sodium pyruvate and 10% fetal calf serum. Fetal calf serum used in these assays was lot matched throughout. […] Toxicity assays were conducted between passages 10–20. Target compound toxicity was measured by incubating the test compound with the cells for 4 h, washing the cells and finally treating the cells with Alamar Blue. After 12–24 h, the fluorescence of the reduced dye was measured. Fluorescence intensity as a function of test compound concentration was fit to the Fermi equation, using non-linear least squares regression analysis, to estimate IC50 values.

[5] = tested on: HepG2 cells; experiment: Mammalian cell toxicity (Alamar Blue); assay type: cell-based; settings: Homo sapiens, cytotoxicity, 4 h incubation
Procedure: Fetal calf serum used in these assays was lot matched throughout. All cultures were maintained under a humidified 5% CO2 atmosphere at 37°C, had media refreshed twice weekly and were subcultured by trypsinization and resuspension at a ratio of 1∶5 each week. Toxicity assays were conducted between passages 10–20. Target compound toxicity was measured by incubating the test compound with the cells for 4 h, washing the cells and finally treating the cells with Alamar Blue. After 12–24 h, the fluorescence of the reduced dye was measured. Fluorescence intensity as a function of test compound concentration was fit to the Fermi equation, using non-linear least squares regression analysis, to estimate IC50 values.

[6] = tested on: TMP-SMZ-resistant MRSA strain; experiment: MIC against clinical isolates of MRSA; assay type: cell-based; settings: Staphylococcus aureus, clinical isolate, Table 4, read-out: MIC TMP-SMZ^R
[7] = tested on: hVISA Mu3; experiment: MIC against clinical isolates of MRSA; assay type: cell-based; settings: Staphylococcus aureus; heteroresistant vancomycin intermediate S. aureus; read-out: MIC hVISA Mu3
[8] = tested on: HA-MRSA; experiment: MIC against clinical isolates of MRSA; assay type: cell-based; settings: Staphylococcus aureus, clinical isolate, read-out: MIC HA-MRSA
[9] = tested on: USA300 CA-MRSA; experiment: MIC against clinical isolates of MRSA; assay type: cell-based, Staphylococcus aureus; settings: Staphylococcus aureus, clinical isolate, read-out: MIC USA300 CA-MRSA
[10] = tested on: USA100 HA-MRSA; experiment: MIC against clinical isolates of MRSA; assay type: cell-based; settings: Staphylococcus aureus, clinical isolate, read-out: MIC USA100 HA-MRSA
[11] = tested on: VISA Mu50; experiment: MIC against clinical isolates of MRSA; assay type: cell-based; settings: Staphylococcus aureus, read-out: MIC VISA Mu50
[12] = biological target: S. pyogenes DHFR (Streptococcus pyogenes, UniProt Q9A091); experiment: biochemical; assay type: biochemical; settings: for Selectivity (h/Sp): IC50 (human)/IC50 (pathogen)
Procedure: (§2) S. aureus DHFR was cloned, expressed and purified as previously described. Briefly, the DHFR gene was inserted into vector pET41 with a His8 tag for purification. The protein was expressed in E. coli BL21 (DE3) cells. […] The protein was concentrated to ∼5 mg/mL. S. pyogenes DHFR was cloned using PCR from genomic DNA and inserted in vector pET-41.
(§3) Enzyme inhibition assays were performed by monitoring the rate of NADPH oxidation by the DHFR enzyme at an absorbance of 340 nm over five minutes. Assays were performed in the presence of saturating concentrations of NADPH (100 µM) and initiated with dihydrofolate (1 mM). All assays were completed at 25°C in a buffer containing 20 mM TES pH 7.0, 50 mM KCl, 10 mM 2-mercaptoethanol, 0.5 mM EDTA and 1 mg/mL BSA. Inhibition was measured at least three times with inhibitor concentrations near the IC50 value and the average IC50 value is reported with a standard deviation.

[13] = biological target: T1, S. aureus DHFR (Staphylococcus aureus, UniProt P0A017); experiment: biochemical; assay type: biochemical; settings: for Selectivity (h/Sa): IC50 (human)/IC50 (pathogen)
T1 construct: the DHFR gene was inserted into vector pET41 with a His8 tag for purification; His8; made in house; host or cells: E. coli BL21 (DE3)
Procedure: as §2, §3

[14] = biological target: T2, Human DHFR (Homo sapiens, UniProt P00374); experiment: DHFR enzyme inhibition assay (NADPH oxidation, 340 nm); assay type: biochemical; settings: human DHFR; average of at least three measurements; read-out: IC50 (nM) Human
T2 sequence (P00374 1-187): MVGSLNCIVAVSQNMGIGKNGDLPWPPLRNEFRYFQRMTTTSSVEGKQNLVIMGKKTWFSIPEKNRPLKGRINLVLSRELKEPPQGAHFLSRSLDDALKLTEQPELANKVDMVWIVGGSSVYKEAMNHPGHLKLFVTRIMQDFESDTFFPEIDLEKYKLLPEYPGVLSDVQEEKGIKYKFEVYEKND
Procedure: as §3

[15] = tested on: Staphylococcus aureus subsp. aureus ATCC 44300; experiment: MIC and MBC determination (microdilution, plating on Isosensitest agar); assay type: cell-based; settings: ATCC44300
From the text: MBC was defined as the lowest concentration of inhibitor preventing colony growth on agar plates.

[16] = tested on: MRSA strain ATCC 43300; settings: selection at ten times the MIC value
Procedure: Selective plates were grown for 30 hours at 37°C. […] Direct colony PCR was used to isolate and amplify the dfrA gene from resistant strains using methods described in [34]. All PCR products were screened for point mutations in DHFR by high quality DNA sequencing (Genewiz). Primers used to detect the dfrA gene contained restriction enzyme cut sites for NdeI and XhoI in order to ligate PCR products into the pET41 vector for further validation with DNA sequencing with the T7 promoter sequencing primer. Mutation frequencies were calculated based on the sequencing information provided for each mutant colony.

[17] = tested on: MRSA strain containing the F98Y mutation; experiment: MIC against MRSA strain containing the F98Y mutation; assay type: cell-based; settings: Staphylococcus aureus, read-out: MIC against MRSA strain containing the F98Y mutation
[18] = 10% FCS, read-out: MIC S. pyogenes +FCS
[19] = 10% FCS, value in parentheses, read-out: MIC S. pyogenes +FCS
[20] = value in parentheses, read-out: MIC S. pyogenes
[21] = 10% fetal calf serum, value in parentheses, read-out: MIC MRSA +FCS
[22] = value in parentheses, read-out: MIC MRSA
[23] = S. aureus DHFR, average of at least three measurements, read-out: IC50 (nM) Sa

T1 sequence (P0A017 whole entry): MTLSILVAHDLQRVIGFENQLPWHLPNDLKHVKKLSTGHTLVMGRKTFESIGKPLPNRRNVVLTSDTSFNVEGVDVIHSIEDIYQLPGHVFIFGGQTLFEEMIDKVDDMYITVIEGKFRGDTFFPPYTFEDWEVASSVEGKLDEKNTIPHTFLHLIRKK
Chain of S. pyogenes DHFR (Q9A091 entry or part of it): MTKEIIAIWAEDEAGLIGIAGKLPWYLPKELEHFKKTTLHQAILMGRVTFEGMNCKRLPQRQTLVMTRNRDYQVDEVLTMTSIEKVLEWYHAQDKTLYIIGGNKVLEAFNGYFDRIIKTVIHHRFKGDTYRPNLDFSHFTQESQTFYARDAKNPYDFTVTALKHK

Row | SMILES | MIC [1, 18] [µg/mL] | MIC [1, 19] [µM] | MIC [1, 20] [µM] | MIC ([1]; read-out: MIC S. pyogenes) [µg/mL] | MIC [3, 21] [µM] | MIC [3, 22] [µM] | IC50 [4] [nM] | Selectivity S. pyogenes [1] | IC50 [5] [nM] | MIC [6] [µg/mL] | MIC [7] [µg/mL] | MIC [8] [µg/mL] | MIC ([9]; USA300) [µg/mL] | MIC [9] [µg/mL] | MIC ([10]; USA100) [µg/mL] | MIC ([10]; first USA100 column) [µg/mL] | MIC ([10]; third USA100 column) [µg/mL] | MIC [11] [µg/mL] | MIC ([3]; read-out: MIC MRSA) [µg/mL] | IC50 [14] [nM] | further results
1 | COc1cc(Cc2cnc(N)nc2N)cc(OC)c1OC [TMP, trimethoprim, reference compound] | 0.58 | 2 | 2 | 0.58 | 0.5 | 0.5 |  |  |  |  |  |  |  |  |  |  |  |  |  |  | MIC against the F98Y strain [2]: 16 µg/mL (≈ 55.1 µM); MIC MRSA [3]: 0.14 µg/mL (≈ 0.482 µM); MIC MRSA +FCS ([3]; 10% fetal calf serum): 0.14 µg/mL (≈ 0.482 µM)
2 | CCc1nc(N)nc(N)c1C#CCc1cccc(-c2cccnc2)c1 [Compound 36] |  |  | 0.25 | 0.08 |  | 0.125 | > 500000 | >2,000 | > 500000 | 0.045 (≈ 0.137 µM) | 0.36 (≈ 1.09 µM) | 0.36 (≈ 1.09 µM) | 0.36 (≈ 1.09 µM) | 0.02 (≈ 0.0607 µM) | 0.36 (≈ 1.09 µM) | 5.76 (≈ 17.5 µM) | 0.09 (≈ 0.273 µM) | 0.72 (≈ 2.19 µM) | 0.041 | 290 ± 15 | Selectivity MRSA [3]: >4,000; Selectivity (h/Sp) [12]: 6; Selectivity (h/Sa) [13]: 9; IC50 [13, 23]: 33 ± 0.5 nM
3 | COc1cc(-c2ccncc2)cc(C(C)C#Cc2c(C)nc(N)nc2N)c1 (stereo not shown) [Compound 24] | 0.09 | 0.25 | 0.125 | 0.04 | 0.25 | 0.125 | 220000 | 1,760 | 233000 | 0.045 (≈ 0.125 µM) | 0.045 (≈ 0.125 µM) | 0.09 (≈ 0.25 µM) | 0.09 (≈ 0.25 µM) | 0.045 (≈ 0.125 µM) | 0.045 (≈ 0.125 µM) | 2.9 (≈ 8.07 µM) | 0.09 (≈ 0.25 µM) | 0.18 (≈ 0.501 µM) | 0.04 | 1500 ± 8 | MBC [15]: 0.078 µg/mL (≈ 0.217 µM); MIC [15]: 0.078 µg/mL (≈ 0.217 µM); resistance frequency [16]: 3.9×10^−10; MIC [17]: 2.5 µg/mL (≈ 6.96 µM); Selectivity MRSA [3]: 1,760; MIC ([3]; 10% fetal calf serum, read-out: MIC MRSA +FCS): 0.09 µg/mL; Selectivity (h/Sp) [12]: 9.4; Selectivity (h/Sa) [13]: 58; IC50 [13, 23]: 26 ± 2 nM
4 | CCc1nc(N)nc(N)c1C#CC(C)c1cc(OC)cc(-c2ccncc2)c1 (stereo not shown) [Compound 25] |  |  | 0.032 | 0.012 |  | 0.5 | 85000 |  | 171000 | 0.09 (≈ 0.241 µM) | 0.09 (≈ 0.241 µM) | 0.02 (≈ 0.0536 µM) | 0.09 (≈ 0.241 µM) | 0.045 (≈ 0.12 µM) | 0.09 (≈ 0.241 µM) | 2.9 (≈ 7.77 µM) | 0.09 (≈ 0.241 µM) | 0.09 (≈ 0.241 µM) | 0.09 | 1300 ± 11 | MBC [15]: 0.078 µg/mL (≈ 0.209 µM); MIC [15]: 0.078 µg/mL (≈ 0.209 µM); IC50 [12]: 180 ± 19 nM; IC50 [13]: 19 ± 1 nM
